From patent US10392363B2, “Methods for treating protozoan infections” (Neoculi Pty Ltd., priority 2014, dated 2019)

Columns and labels:
[1] = system: Giardia duodenalis (strain WB trophozoites); experiment: Giardia adherence assay; assay type: cell-based; details: exposed for 5 hours
Method: Giardia strain WB was grown until confluent (grown and maintained in TYI-S-33 medium with 10% foetal bovine serum). For the assay, media of a confluent culture was replaced with fresh TYI-S-33 medium. Cultures were then cold shocked (on ice) for 40 minutes to detach trophozoites. The cell density of the cultures was adjusted to 1×10^6 cells/ml and 1 ml was added to each well of a 24 well plate already containing 1 ml of diluted compounds (see below). […] After incubation the coverslips were removed, air-dried and stained with Diff-Quik (a Romanowski stain variant). Coverslips were mounted onto glass slides using polymount. Images at 10× magnification were taken at 5 random locations per coverslip. […] Stock solutions of compounds were prepared in DMSO at 25.6 mg/ml. Compounds were diluted 1:100 in TYI-S-33 medium. A 1:2 serial dilution was then performed in TYI-S-33 medium in 24 well plates.

[2] = system: Giardia duodenalis trophozoites; experiment: Resazurin reduction assay (Example 3); assay type: cell-based; details: 42 hours, then 6 hours with Alamarblue
Method: Giardia trophozoites were grown until confluent. The media was replaced with fresh media and they were cold shocked for 40 minutes (as above). Cells were diluted to a concentration of ˜500 000 cells/ml and 100 μl were added to each well of the assay plate (except media only control). The assay was incubated in an anaerobic environment (candle jar) for 42 hours at 37° C. […] After incubation the absorbance of each sample was read at 570 and 630 nm. The percent reduction of resazurin (Alamarblue™) was calculated and data was analysed with GraphPad Prism v6 software. Assay set-up: the assay was performed in 96 well plates in a total volume of 200 μl. 100 μl of NCL812 or NCL062 (concentration of 25.6 mg/ml in DMSO) or metronidazole (concentration 5 mg/ml in DMSO) stock was added to 9.9 ml of TYI-S-33 medium, then serially diluted 1:2 in the same medium. Cells were added as above.

[3] = Microsomal stability, human; assay type: in vitro ADME; details: human, 1 μM
Method: (§1) Incubation methods: The metabolic stability assay was performed by incubating each test compound (at 1 μM) with human and mouse liver microsomes (Xenotech, Lot#1210057 and 1310211, respectively) at 37° C. and 0.4 mg/mL protein concentration. The metabolic reaction was initiated by the addition of an NADPH-regenerating system (i.e. NADPH is the cofactor required for CYP450-mediated metabolism) and quenched at various time points over a 60 minute incubation period by the addition of acetonitrile containing diazepam as internal standard. Control samples (containing no NADPH) were included (and quenched at 2, 30 and 60 minutes) to monitor for potential degradation in the absence of cofactor. Analytical conditions: Instrument: Waters Micromass Xevo G2 QTOF coupled to a Waters Acquity UPLC; Detection: Positive electrospray ionisation under MSE mode; Cone Voltage 30 V; Column: Ascentis Express Amide column (50×2.1 mm, 2.7 μm); LC conditions: Gradient cycle time: 4 minutes; Injection volume: 5 μL; Flow rate: 0.4 mL/min; Mobile phase: Acetonitrile-water gradient with 0.05% formic acid Metabolite; Identification: A metabolite screen was not included in this study, however, since data was acquired using MSE mode, which allows for the simultaneous acquisition of low and high collision energy MS spectra, a post-hoc metabolite search may be conducted at a later date if warranted. […]

[4] = Microsomal stability, mouse; assay type: in vitro ADME; details: mouse, 1 μM
Method: as §1

[5] = system: Trypanosoma cruzi (Tulahuen trypomastigotes expressing β-galactosidase, in L6 cells); experiment: In vitro T. cruzi assay for determination of IC50; assay type: cell-based; details: Trypanosoma cruzi, TULAHUEN, L6; 96 h incubation
Procedure, shortened: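 Tulahuen T. cruzi expressing β-galactosidase, grown in L6 cells; compounds tested as seven-point serial dilutions in triplicate after removing extracellular trypomastigotes.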

## N=C(N/N=C/c1ccc(Cl)cc1)N/N=C/c1ccc(Cl)cc1 [NCL812, 1,3-bis[(E)-(4-chlorophenyl)methyleneamino]guanidine]
[1]
  number of adherent trophozoites: significant decreases
[2]
  metabolic activity of the trophozoites (percentage of reduction of resazurin): reduction in the metabolic activity
[3]
  predicted hepatic extraction ratio (EH): < 0.3
[4]
  predicted hepatic extraction ratio (EH): < 0.3
[5]
  IC50: > 11 µM
